Biological target: prostate-specific membrane antigen (PSMA) (Homo sapiens, UniProt Q04609)
Assay: radioligand displacement of […]mTc-MIP-1427 in PSMA-expressing PC-3 PiP cells
Type: cell-based

Chain of prostate-specific membrane antigen (PSMA) (Q04609 whole entry): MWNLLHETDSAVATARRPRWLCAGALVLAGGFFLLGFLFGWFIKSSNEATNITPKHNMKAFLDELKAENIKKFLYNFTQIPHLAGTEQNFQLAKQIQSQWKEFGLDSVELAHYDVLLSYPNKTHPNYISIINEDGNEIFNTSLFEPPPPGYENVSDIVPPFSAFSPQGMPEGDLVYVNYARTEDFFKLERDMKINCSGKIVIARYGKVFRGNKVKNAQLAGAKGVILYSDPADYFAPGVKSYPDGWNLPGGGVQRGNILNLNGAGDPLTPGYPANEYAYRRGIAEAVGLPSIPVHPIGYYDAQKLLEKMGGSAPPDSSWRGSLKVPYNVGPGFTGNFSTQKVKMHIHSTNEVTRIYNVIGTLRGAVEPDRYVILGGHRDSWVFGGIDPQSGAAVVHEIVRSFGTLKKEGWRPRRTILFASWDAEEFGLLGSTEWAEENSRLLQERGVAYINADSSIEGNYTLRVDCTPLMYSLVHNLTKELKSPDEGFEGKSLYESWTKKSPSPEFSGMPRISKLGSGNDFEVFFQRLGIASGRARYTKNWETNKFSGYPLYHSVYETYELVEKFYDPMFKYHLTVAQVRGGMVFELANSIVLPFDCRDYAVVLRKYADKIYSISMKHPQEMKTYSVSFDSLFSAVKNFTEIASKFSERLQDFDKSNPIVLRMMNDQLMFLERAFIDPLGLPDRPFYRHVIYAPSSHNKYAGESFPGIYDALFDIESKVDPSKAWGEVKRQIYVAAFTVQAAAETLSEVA

| Ki | Substance |
| --- | --- |
| 12 ± 3 nM | La(DO2Apic)-DUPA |
| 17 ± 2 nM | La(macropa)-DUPA |
